Laboratory results: patent US10231954B2, “Neurodegenerative therapies” (LYTIX BIOPHARMA AS, priority 2014, dated 2019)
Like-named read-outs stand apart in the source and are kept apart here.

Legend:
Assay type in all cases: biochemical
PRAK = biological target: T1, PRAK (Homo sapiens, UniProt Q8IW41); assay: Kinase profiling PRAK; conditions: for remaining activity at 100 µM: read-out: residual kinase activity, PRAK
T1 sequence (Q8IW41 1-473): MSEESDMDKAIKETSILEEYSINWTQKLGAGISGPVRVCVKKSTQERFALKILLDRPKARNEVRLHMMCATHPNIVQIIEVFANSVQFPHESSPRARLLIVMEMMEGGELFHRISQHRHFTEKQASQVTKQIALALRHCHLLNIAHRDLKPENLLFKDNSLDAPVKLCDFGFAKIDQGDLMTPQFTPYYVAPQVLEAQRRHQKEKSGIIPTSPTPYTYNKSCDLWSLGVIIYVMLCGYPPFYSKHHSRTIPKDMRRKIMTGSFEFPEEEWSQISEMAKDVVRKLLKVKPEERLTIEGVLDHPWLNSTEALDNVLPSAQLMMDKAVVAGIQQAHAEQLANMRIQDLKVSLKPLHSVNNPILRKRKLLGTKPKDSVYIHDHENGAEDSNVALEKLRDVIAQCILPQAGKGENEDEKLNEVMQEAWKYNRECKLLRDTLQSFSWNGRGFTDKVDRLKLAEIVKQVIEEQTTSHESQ
Text: (§1) Any value less that 25 is considered to be highly significant inhibition.

TLK1 = biological target: T2, TLK1 (Homo sapiens, UniProt Q9UKI8); assay: Kinase profiling TLK1; conditions: for remaining activity at 100 µM: read-out: residual kinase activity, TLK1
T2 sequence (Q9UKI8 1-766): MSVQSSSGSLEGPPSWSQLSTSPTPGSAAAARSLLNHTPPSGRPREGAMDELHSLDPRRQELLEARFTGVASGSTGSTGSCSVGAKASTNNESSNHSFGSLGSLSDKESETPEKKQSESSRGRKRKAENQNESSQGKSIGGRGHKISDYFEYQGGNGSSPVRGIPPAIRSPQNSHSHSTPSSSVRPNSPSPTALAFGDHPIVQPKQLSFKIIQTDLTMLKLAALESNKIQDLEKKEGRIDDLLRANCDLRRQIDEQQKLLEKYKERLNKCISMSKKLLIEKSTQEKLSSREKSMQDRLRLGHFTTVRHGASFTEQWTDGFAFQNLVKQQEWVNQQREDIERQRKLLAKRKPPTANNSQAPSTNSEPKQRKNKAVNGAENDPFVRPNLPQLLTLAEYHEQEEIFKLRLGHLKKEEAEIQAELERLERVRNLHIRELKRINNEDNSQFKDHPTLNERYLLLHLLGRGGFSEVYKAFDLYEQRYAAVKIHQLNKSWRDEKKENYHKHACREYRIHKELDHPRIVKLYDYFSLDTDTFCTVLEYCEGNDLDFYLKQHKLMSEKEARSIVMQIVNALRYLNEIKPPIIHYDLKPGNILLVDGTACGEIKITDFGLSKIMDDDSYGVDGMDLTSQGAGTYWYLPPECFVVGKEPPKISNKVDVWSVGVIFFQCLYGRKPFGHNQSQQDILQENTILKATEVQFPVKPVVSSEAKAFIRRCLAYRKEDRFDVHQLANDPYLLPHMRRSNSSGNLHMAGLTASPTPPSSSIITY
Text: as §1

PAK5 = PAK5 (Homo sapiens, UniProt Q9P286); assay: Kinase profiling PAK5; conditions: for remaining activity at 100 µM: read-out: residual kinase activity, PAK5
Sequence of PAK5 (Q9P286 whole entry): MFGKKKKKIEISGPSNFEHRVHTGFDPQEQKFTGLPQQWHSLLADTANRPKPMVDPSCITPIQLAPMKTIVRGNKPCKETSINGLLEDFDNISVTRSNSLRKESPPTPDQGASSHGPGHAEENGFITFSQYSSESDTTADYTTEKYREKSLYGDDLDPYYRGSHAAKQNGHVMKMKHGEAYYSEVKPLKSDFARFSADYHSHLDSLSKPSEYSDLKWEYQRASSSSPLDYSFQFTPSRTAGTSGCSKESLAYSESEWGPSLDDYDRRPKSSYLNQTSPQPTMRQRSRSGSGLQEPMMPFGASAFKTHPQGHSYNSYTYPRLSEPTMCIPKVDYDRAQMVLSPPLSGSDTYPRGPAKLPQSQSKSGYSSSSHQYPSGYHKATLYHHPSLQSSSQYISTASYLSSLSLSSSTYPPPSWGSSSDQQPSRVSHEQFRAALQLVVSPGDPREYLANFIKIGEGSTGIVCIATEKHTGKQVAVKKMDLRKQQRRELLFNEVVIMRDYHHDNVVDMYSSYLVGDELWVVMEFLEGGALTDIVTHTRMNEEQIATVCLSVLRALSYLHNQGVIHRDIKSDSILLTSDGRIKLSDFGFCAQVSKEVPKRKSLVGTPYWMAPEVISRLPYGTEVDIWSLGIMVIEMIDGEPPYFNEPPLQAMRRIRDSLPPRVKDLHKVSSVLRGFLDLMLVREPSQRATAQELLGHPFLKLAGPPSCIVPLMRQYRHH
Text: as §1

GCK = biological target: T3, GCK (Homo sapiens, UniProt Q12851); assay: Kinase profiling GCK; conditions: for remaining activity at 100 µM: read-out: residual kinase activity, GCK
T3 sequence (Q12851 1-820): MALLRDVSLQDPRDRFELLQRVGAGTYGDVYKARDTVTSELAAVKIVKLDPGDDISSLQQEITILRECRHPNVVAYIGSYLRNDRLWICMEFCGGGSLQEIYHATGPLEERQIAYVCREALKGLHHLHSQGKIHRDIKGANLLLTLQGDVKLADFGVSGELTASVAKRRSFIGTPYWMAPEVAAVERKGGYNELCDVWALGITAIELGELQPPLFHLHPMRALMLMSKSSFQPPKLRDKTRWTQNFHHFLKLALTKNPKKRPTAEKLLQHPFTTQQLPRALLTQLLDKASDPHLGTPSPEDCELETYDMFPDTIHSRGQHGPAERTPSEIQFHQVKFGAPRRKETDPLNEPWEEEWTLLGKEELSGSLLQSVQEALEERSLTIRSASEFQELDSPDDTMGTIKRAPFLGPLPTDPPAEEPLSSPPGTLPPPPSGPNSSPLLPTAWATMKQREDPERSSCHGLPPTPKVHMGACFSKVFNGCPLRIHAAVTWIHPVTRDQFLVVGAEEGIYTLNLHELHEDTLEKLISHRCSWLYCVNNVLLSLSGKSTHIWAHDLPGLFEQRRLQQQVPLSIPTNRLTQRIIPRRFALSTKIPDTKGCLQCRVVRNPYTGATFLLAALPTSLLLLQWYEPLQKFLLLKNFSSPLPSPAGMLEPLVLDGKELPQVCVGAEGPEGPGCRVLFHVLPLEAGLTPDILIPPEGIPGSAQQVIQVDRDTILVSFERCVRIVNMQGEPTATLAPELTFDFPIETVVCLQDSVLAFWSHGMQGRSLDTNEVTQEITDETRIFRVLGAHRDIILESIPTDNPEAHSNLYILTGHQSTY
Text: as §1

MEKK1 = MEKK1 (Homo sapiens, UniProt Q13233); assay: Kinase profiling MEKK1; conditions: for remaining activity at 100 µM: read-out: residual kinase activity, MEKK1
Sequence of MEKK1 (Q13233 whole entry, species assumed): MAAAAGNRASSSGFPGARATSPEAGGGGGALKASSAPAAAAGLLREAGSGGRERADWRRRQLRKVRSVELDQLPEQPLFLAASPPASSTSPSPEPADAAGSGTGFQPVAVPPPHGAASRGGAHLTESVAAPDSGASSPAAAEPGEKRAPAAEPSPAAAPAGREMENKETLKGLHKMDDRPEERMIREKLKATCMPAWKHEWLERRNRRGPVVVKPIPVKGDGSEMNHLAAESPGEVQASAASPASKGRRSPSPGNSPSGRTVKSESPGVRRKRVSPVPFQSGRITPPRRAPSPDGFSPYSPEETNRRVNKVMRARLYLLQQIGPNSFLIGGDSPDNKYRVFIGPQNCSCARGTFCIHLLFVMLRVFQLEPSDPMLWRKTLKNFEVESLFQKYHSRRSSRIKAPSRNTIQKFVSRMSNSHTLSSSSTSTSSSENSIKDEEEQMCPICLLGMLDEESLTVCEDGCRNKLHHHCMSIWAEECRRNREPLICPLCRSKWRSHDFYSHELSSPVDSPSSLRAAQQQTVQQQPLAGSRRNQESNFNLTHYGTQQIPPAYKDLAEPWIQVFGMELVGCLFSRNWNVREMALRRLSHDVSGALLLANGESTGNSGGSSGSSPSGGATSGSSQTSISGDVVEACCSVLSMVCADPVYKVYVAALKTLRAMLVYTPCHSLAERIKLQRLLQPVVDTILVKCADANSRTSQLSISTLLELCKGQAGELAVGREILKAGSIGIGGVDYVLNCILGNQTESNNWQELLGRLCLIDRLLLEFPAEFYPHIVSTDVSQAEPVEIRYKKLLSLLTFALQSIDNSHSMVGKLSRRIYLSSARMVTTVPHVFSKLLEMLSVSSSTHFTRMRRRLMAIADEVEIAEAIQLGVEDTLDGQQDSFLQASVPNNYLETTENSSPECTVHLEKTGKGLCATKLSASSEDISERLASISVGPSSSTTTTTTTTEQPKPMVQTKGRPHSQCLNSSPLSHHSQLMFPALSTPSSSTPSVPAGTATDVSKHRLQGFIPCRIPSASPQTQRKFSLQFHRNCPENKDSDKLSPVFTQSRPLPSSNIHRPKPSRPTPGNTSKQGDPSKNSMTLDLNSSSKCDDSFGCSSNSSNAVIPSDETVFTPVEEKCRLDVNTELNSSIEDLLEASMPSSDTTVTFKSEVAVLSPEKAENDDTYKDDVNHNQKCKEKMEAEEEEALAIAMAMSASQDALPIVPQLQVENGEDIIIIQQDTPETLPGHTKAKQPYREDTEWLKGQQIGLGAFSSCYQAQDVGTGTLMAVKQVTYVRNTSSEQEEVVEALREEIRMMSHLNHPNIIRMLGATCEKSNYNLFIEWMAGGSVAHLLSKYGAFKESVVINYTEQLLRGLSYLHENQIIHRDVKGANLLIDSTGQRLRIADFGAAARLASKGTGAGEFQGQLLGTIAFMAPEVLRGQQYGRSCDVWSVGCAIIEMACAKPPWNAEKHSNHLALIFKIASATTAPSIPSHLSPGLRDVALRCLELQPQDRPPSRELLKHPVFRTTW
Text: as §1

BRK = BRK (Homo sapiens, UniProt Q13882); assay: Kinase profiling BRK; conditions: for remaining activity at 100 µM: read-out: residual kinase activity, BRK
Sequence of BRK (Q13882 whole entry, species assumed): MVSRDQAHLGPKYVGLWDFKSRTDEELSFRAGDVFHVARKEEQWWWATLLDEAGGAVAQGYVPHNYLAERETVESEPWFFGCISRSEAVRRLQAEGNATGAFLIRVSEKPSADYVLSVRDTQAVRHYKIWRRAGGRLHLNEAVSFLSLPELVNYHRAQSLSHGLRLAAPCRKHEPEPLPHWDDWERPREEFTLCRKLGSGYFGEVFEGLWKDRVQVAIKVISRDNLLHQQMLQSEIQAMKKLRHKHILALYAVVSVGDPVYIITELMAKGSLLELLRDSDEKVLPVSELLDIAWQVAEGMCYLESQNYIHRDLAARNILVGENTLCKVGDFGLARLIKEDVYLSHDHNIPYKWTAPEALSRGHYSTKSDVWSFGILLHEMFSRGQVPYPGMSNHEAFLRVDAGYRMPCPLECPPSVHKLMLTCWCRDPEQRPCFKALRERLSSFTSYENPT
Text: as §1

[1] = 100 micromolar inhibitor concentration, 100 is no change
[2] = 100 micromolar inhibitor, 100 = no change

Structure (SMILES)	remaining activity at 100 µM (PRAK; [1])	remaining activity at 100 µM (TLK1; [1])	remaining activity at 100 µM (PAK5; [1])	remaining activity at 100 µM (GCK; [1])	remaining activity at 100 µM (MEKK1; [1])	remaining activity at 100 µM (BRK; [1])	residual kinase activity, PRAK (PRAK; [1])	residual kinase activity, TLK1 (TLK1; [1])	residual kinase activity, PAK5 (PAK5; [1])	residual kinase activity, GCK (GCK; [1])	residual kinase activity, MEKK1 (MEKK1; [1])	residual kinase activity, BRK (BRK; [1])	other results
CC(=O)Nc1nc2cc(O)ccc2s1 [Compound 01-66, N-(5-hydroxybenzo[d]thiazol-2-yl)acetamide]													remaining activity at 100 µM (PRAK): 58%; remaining activity at 100 µM (TLK1): 92%; remaining activity at 100 µM (PAK5): 72%; remaining activity at 100 µM (GCK): 32%; remaining activity at 100 µM (MEKK1): 94%; remaining activity at 100 µM (BRK): 77%
CC(=O)Nc1nc2ccc(O)cc2s1 [Compound 01-71]	47%	45%	85%	19%	96%	22%							
O=C(Nc1nc2cc(O)ccc2s1)c1cccnc1 [Compound 03-33]							83	97	109	25	107	46	
O=C(Nc1nc2cc(O)ccc2s1)c1ccccn1 [Compound 03-13]							90	99	82	39	114	94	
CC(=O)Nc1nc2cc(C)ccc2s1 [Compound 03-76]							75	106	107	35	107	80	
O=C(Nc1nc2ccc(O)cc2s1)c1ccncc1 [Compound 08-42]							74	97	79	27	76	43	
O=C(Nc1nc2ccc(O)cc2s1)c1ccccn1 [Compound 03-12]							65	96	94	29	127	61	
CC(=O)Nc1cccc(NC(=O)c2nc3ccc(O)cc3s2)c1 [Compound 03-07, N-(3-acetamidophenyl)-6-hydroxybenzo[d]thiazole-2-carboxamide]													remaining activity at 100 µM (PRAK; [2]): 59%; remaining activity at 100 µM (TLK1; [2]): 108%; remaining activity at 100 µM (PAK5; [2]): 82%; remaining activity at 100 µM (GCK; [2]): 35%; remaining activity at 100 µM (MEKK1; [2]): 115%; remaining activity at 100 µM (BRK; [2]): 80%
O=C(Nc1nc2ccc(O)cc2s1)c1ccccc1 [Compound 03-60]							39	74	70	4	105	14	
CC(=O)Nc1nc2ccccc2s1 [Compound 03-32]							78	92	74	39	93	89	
CC(=O)Nc1nc2ccc(C#N)cc2s1 [Compound 01-94]	69%	53%	70%	11%	94%	100%							
O=C(Nc1nc2cc(O)ccc2s1)c1ccncc1 [Compound 03-11]							86	95	92	33	106	93	
COc1ccc2sc(NC(C)=O)nc2c1 [Compound 03-21]	71%	97%	110%	3%	113%	62%							
CC(=O)Nc1nc2cc(C(F)(F)F)ccc2s1 [Compound 03-73]	87%	103%	85%	36%	111%	106%							
CC(=O)Nc1nc2cc(F)ccc2s1 [Compound 03-77]	76%	89%	111%	8%	102%	91%							
CC(=O)Nc1nc2ccc(C(F)(F)F)cc2s1 [Compound 01-90]	111%	82%	82%	15%	90%	99%							
O=C(Nc1nc2ccc(O)cc2s1)c1cccnc1 [Compound 08-44]							60	90	88	31	107	21	
